Reference: patent US20190226949A1, “IRIDIUM COMPLEXES FOR CELLULAR IMAGING” (UNIVERSITY OF SOUTH AUSTRALIA, priority 2016, published 2019)
Values joined by “and” are separate entries in the source; they are usually repeats but may differ in a detail not shown here. Equal entries are not always repeated.

Assays:
[1] = system: H9c2 rat cardiomyoblast cells; assay: Staining and co-staining of live H9c2 cells, confocal and two-photon microscopy; format: cell-based; conditions: for cellular localisation (co-staining): live H9c2, 20 μM, 30 minutes; for emission profile from cells: live H9c2, one-photon or two-photon excitation
Procedure: Live H9c2 rat cardiomyoblasts were incubated with the iridium complexes for 30 minutes. Complexes were made to a final concentration of 20 μM in the cell culture medium with DMSO concentration <0.2%. Under these conditions, the luminescence from the iridium complexes within the cells was detected via confocal microscopy under single-photon excitation (403 nm) or two-photon excitation (810-840 nm).
To determine the localisation of the iridium complexes, co-staining experiments were carried out with the use of ER-Tracker™ Red (endoplasmic reticulum), LysoTracker® Red DND-99 (acidic compartments), MitoTracker® Red (mitochondria), BODIPY® 500/510 C1, C12(fatty acid) or β-BODIPY® FL HPC (phospholipids). […] This difference was also in agreement with the trend of the quantum yield data illustrated before and detection of internalised complex by ICP-MS.
H9c2 rat cardiomyoblast cell line was a kind gift from Professor Janna Morrison (University of South Australia). The H9c2 cells were maintained in high-glucose (4500 mg/L) DMEM medium (Sigma-Aldrich, USA) containing 10% fetal bovine serum (FBS; In Vitro Technologies, USA) and 2 mM L-glutamine (Sigma-Aldrich, USA) at 37° C. and 5% CO2. The H9c2 cells were cultured in […] flasks, and cells (1×10^6 cells/mL) that had been passaged, from two up to five times were used for experiments. For live cell imaging and MTS assay, the H9c2 cells (1×10^5 cells/mL) were cultured overnight in either ibidi μ-Slide 8 wells in a final volume of 250 μL or 96-well microtiter plate in a final volume of 200 μL in absence of Ir-based molecular probes.
The H9c2 cells were incubated with 20 μM of Ir-based molecular probes for 30 minutes in FBS-free media (300 μL) at 37° C. and 5% CO2. These cells were washed twice with phosphate buffered saline (PBS) and once with FBS-free media, and then co-stained with either ER-Tracker™ Red (BODIPY® TR Glibenclamide), LysoTracker® Red DND-99, MitoTracker® Red CMXRos (1H,5H,11H,15H-Xantheno[2,3,4-ij:5,6,7-i′j′]diquinolizin-18-ium, 9-[4-(chloromethyl)phenyl]-2,3,6,7,12,13,16,17-octahydro-, chloride), β-BODIPY® FL C5-HPC (2-(4,4-Difluoro-5,7-Dimethyl-4-Bora-3a,4a-Diaza-s-Indacene-3-Pentanoyl)-1-Hexadecanoyl-sn-Glycero-3-Phosphocholine) or BODIPY® 500/510 C1, C12 (4,4-Difluoro-5-Methyl-4-Bora-3a,4a-Diaza-s-Indacene-3-Dodecanoic Acid), which were obtained from Life Technologies Australia Pty Ltd, Australia. Cell biology analysis was carried out with a minimum of two experimental groups. Imaging analysis was performed using a Nikon A1+ confocal microscope equipped with 403 nm, 488 nm, 561 nm and 640 nm solid-state lasers (Nikon, Japan) and OKOLab Microscope Incubator (Okolab USA Inc., USA). The final preparation of the images was conducted with Adobe Photoshop CC (Adobe Systems Inc., USA).
The H9c2 cells were incubated with 20 μM of Ir-based molecular probes for 30 minutes in FBS-free media (300 μL) at 37° C. and 5% CO2. These cells then were washed with phosphate buffered saline (PBS) and imaged using Zeiss LSM710 META NLO inverted microscope supplemented with a two-photon Mai-Tai®, tunable Ti:Sapphire femtosecond pulse laser (710-920 nm, Spectra-Physics). Fluorescence of Ir-based molecular probes was detected using the following settings: two-photon excitation wavelength 830 nm, beam splitter MBS 690+, emission interval 520-650 nm. The H9c2 cells were exposed to two-photon illumination between 810-840 nm. A continuum of lambda stack images was captured across the emission spectrum 416-728 nm. The images were acquired using a Plan-APOCHROMAT 63X/NA1.4 oil immersion objective. The final preparation of the images was conducted with Adobe Photoshop CC (Adobe Systems Inc., USA).

[2] = Photophysical measurements (absorption, emission, lifetime, quantum yield) in diluted solutions; format: physicochemical; conditions: for Emission λem / τaer, excited state lifetime (relative weight in parentheses) / τdeaer, excited state lifetime (relative weight in parentheses): 298K; for Φaer, quantum yield / Φdeaer, quantum yield: versus Ru(bpy)3^2+ in water (φr = 0.028); for τdeaer, excited state lifetime (relative weight in parentheses) / Φdeaer, quantum yield: deaerated; for knr: calculated as [(1 − φ)/τ] from deaerated solutions; for kr: calculated as [φ/τ] from deaerated solutions; for Φ, quantum yield: versus Ru(bpy)3^2+ in water; for red-shift of emission from ethyl laurate to dichloromethane: ethyl laurate vs dichloromethane
Description: A summary of the photophysical data for the complexes as diluted solutions (10^−5 M) in dichloromethane, water, PBS, lysosomal fluid solution, and ethyl laurate is reported in Table 1. All the listed aqueous media also contain 0.1% DMSO to favour the solubilisation of the complexes. The various solvents have been chosen to identify potential modulations on the photophysical behaviour of the iridium complexes in diverse cellular environments such as cytoplasm, endosome/lysosomes acidic organelles, or lipid-rich compartments like membranes, endoplasmic reticulum, and lipid droplets. In general, the photophysical characteristics were measured in aerated solutions to take into account the presence of oxygen in live cells. On the other hand, dichloromethane solutions were compared as aerated and degassed to confirm oxygen sensitivity and triplet character of the excited states of the complexes.
Absorption spectra were recorded at room temperature using a Cary 4000 UV/Vis spectrometer. Uncorrected steady state emission and excitation spectra were recorded on an Edinburgh FLSP980-S2S2-stm spectrometer equipped with: i) a temperature-monitored cuvette holder; ii) 450 W Xenon arc lamp; iii) double excitation and emission monochromators; iv) a Peltier cooled Hamamatsu R928P photomultiplier tube (spectral range 200-870 nm). Emission and excitation spectra were corrected for source intensity (lamp and grating) and emission spectral response (detector and grating) by a calibration curve supplied with the instrument. According to the approach described by Demas and Crosby, luminescence quantum yields (Φem) were measured in optically dilute solutions (O.D.<0.1 at excitation wavelength) obtained from absorption spectra on a wavelength scale [nm] and compared to the reference emitter by the following equation: […]
where A is the absorbance at the excitation wavelength (λ), I is the intensity of the excitation light at the excitation wavelength (λ), n is the refractive index of the solvent, D is the integrated intensity of the luminescence and Φ is the quantum yield. The subscripts r and x refer to the reference and the sample, respectively. The quantum yield determinations were performed at identical excitation wavelength for the sample and the reference, therefore cancelling the I(λr)/I(λx) term in the equation. The quantum yields of complexes were measured against Rubipy in water (Φr=0.028). Emission lifetimes (z) were determined with the time correlated single photon counting technique (TCSPC) with the same Edinburgh FLSP980-S2S2-stm spectrometer using either a pulsed picosecond LED (EPLED/EPL 377 nm, FHWM<800 ps) or a microsecond flashlamp. The goodness of fit was assessed by minimising the reduced χ^2 function and by visual inspection of the weighted residuals. The solvents used for the preparation of the solutions for the photophysical investigations were of LR grade and the water was deionised. Degassing of the dichlorometane solutions was performed using the freeze-pump-thaw method. Experimental uncertainties are estimated to be ±8% for lifetime determinations, ±20% for quantum yields, ±2 nm and ±5 nm for absorption and emission peaks, respectively.

[3] = Lipophilicity by shake-flask method (7.4-buffered PBS / n-octanol); format: physicochemical; conditions: pH 7.4; 7.4-buffered PBS solution and n-octanol; read-out: logD7.4, distribution coefficient
Procedure: The lipophilicity of the iridium complexes was measured by the shake-flask method using 7.4-buffered PBS and n-octanol as solvents (Table 2). The values range between 1.49 and 2.68 are typical for cyclometalated iridium complexes that have not been bioconjugated. […] In general, neutral complexes have log D7.4 values above 2.00 and there is an increased in lipophilicity of extending the tetrazolato ligand with the addition of a phenyl spacer in [Ir(ppy)2(TzPyPhCN)], or by extending the conjugation on passing from pyridine to quinoline or isoquinoline for [Ir(ppy)2(TzQn)] and [Ir(ppy)2(TziQn)]. Methylation in all cases reduces lipophilicity to log D7.4 values […], with the same trend within the family of methylated complexes as previously observed for the neutral ones.

Row | SMILES | cellular localisation (co-staining) [1] | emission profile from cells [1] | Absorption λabs [nm] (10^4ε [M^−1cm^−1]) ([2]; DCM, 10^−5 M) | Emission λem ([2]; DCM, 10^−5 M) | τaer, excited state lifetime (relative weight in parentheses) ([2]; DCM, aerated) | Φaer, quantum yield ([2]; DCM, aerated) | τdeaer, excited state lifetime (relative weight in parentheses) ([2]; DCM) | Φdeaer, quantum yield ([2]; DCM) | knr ([2]; DCM) | kr ([2]; DCM) | Emission λem ([2]; H2O with 0.1% DMSO, aerated) | Φ, quantum yield ([2]; H2O with 0.1% DMSO, aerated) | red-shift of emission on passing from a PBS to a lysosomal fluid solution ([2]; PBS vs lysosomal fluid solution) | red-shift of emission from ethyl laurate to dichloromethane [2] | logD [3] | Absorption λabs [nm] (10^4ε [M^−1cm^−1]) ([2]; H2O with 0.1% DMSO, 10^−5 M)
1 | C[n+]1nc2[n](n1)[Ir]13([c]4ccccc4-c4cccc[n+]41)([c]1ccccc1-c1cccc[n+]13)[n+]1cc(-c3ccc(C#N)cc3)ccc1-2 [[Ir(ppy)2(MeTzPyPhCN)]^+] | staining pattern consistent with mitochondrial localisation | blue-shifted and almost superimposable bands between these cationic complexes and their neutral analogues | 267 (3.39) nm (10^4ε [M^−1cm^−1]) and 290 (3.14) nm (10^4ε [M^−1cm^−1]) and 378 (0.40) nm (10^4ε [M^−1cm^−1]) | 600 nm | 184 ns | 0.057 | 434 ns | 0.093 | 2.090 10^6s^−1 | 2.143 10^5s^−1 | 605 nm | 0.005 | 22 nm | almost no shift is observed | 1.87 ± 0.08 | 
2 | C[n+]1nc2[n](n1)[Ir]13([c]4ccccc4-c4cccc[n+]41)([c]1ccccc1-c1cccc[n+]13)[n+]1c-2ccc2ccccc21 [[Ir(ppy)2(MeTzQn)]^+] | preferential localisation in the endoplasmic reticulum and fatty acids and phospholipids | blue-shifted and almost superimposable bands between these cationic complexes and their neutral analogues |  | 635 nm | 218 ns | 0.028 | 546 ns | 0.043 | 1.753 10^6s^−1 | 0.788 10^5s^−1 | 630 nm | 0.004 |  |  | 1.68 ± 0.05 | 251 (8.30) nm (10^4ε [M^−1cm^−1]) and 307 (2.52) nm (10^4ε [M^−1cm^−1]) and 364 (1.09) nm (10^4ε [M^−1cm^−1])
3 | C[n+]1nc2[n](n1)[Ir]13([c]4ccccc4-c4cccc[n+]41)([c]1ccccc1-c1cccc[n+]13)[n+]1ccc3ccccc3c1-2 [[Ir(ppy)2(MeTziQn)]^+] | preferential localisation in the endoplasmic reticulum and fatty acids and phospholipids | red-shifted consistently with the photophysical data | 253 (6.96) nm (10^4ε [M^−1cm^−1]) and 303 (2.45) nm (10^4ε [M^−1cm^−1]) and 371 (1.24) nm (10^4ε [M^−1cm^−1]) | 640 nm | 208 ns | 0.049 | 485 ns | 0.063 | 1.932 10^6s^−1 | 1.299 10^5s^−1 | 660 nm | 0.004 |  | almost no shift is observed | 1.49 ± 0.06 | 251 (6.64) nm (10^4ε [M^−1cm^−1]) and 291 (2.60) nm (10^4ε [M^−1cm^−1]) and 355 (1.36) nm (10^4ε [M^−1cm^−1])
